Test [1] concerns the target T1, native MDH (Sus scrofa, UniProt P00346).
T1 construct: soluble pig heart MDH from Roche, product #10127248001; purchased Roche 10127248001; host or cells: pig heart
T1 sequence (P00346 25-338): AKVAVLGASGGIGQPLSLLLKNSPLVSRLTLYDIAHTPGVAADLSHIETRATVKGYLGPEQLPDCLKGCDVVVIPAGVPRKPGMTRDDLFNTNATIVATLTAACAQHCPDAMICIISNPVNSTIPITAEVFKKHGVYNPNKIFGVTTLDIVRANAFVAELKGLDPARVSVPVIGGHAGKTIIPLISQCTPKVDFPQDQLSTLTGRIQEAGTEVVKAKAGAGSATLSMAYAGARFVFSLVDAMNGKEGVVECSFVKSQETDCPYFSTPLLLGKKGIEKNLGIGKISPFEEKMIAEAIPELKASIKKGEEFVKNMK
As to the kind of experiment: Native MDH enzymatic activity counter-screen. It is filed as biochemical, pig. The following applies: compounds added after refolding and EDTA quench, read-out: Biochemical Assay IC50 Native MDH Activity. On the procedure: Counter-screening compounds for inhibition of native MDH enzymatic activity.
Reagent Preparations & Assay Protocol: This assay was performed as described above for the GroEL/ES-dMDH refolding assay; however, the assay protocol differed in the sequence of compound addition to the assay plates. The refolding reactions were allowed to proceed for 45 min at 37° C. in the absence of test compounds (complete refolding of MDH occurs), then quenched with the EDTA stock. Compounds were then pin-transferred into the plates after the EDTA quenching step; thus, compounds effects are only possible by inhibiting the fully-refolded MDH reporter substrate. Next enzymatic activity of the refolded MDH was initiated by addition of 20 μL MDH enzymatic assay stock (20 mM sodium mesoxalate and 2.4 mM NADH in reaction buffer, 50 mM Tris pH 7.4, 50 mM KCl, 1 mM DTT), and followed by measuring the NADH absorbance in each well at 340 nm using a Molecular Devices SpectraMax Plus384 microplate reader
A340 nm measurements were recorded at 0.5 minutes (start point) and at successive time points until the amount of NADH consumed reached ˜90% (end point, generally between 20-35 minutes). Compounds were tested in 8-point, 3-fold dilution series (62.5 μM to 29 nM during the reporter reaction) in clear, flat-bottom 384-well microtiter plates.
DMSO was used as a negative control, and previously discovered native MDH inhibitors were used as positive controls. IC50 values for the test compounds were obtained by plotting the % inhibition results in GraphPad Prism 6 and analyzing by non-linear regression using the log (inhibitor) vs. response (variable slope) equation. Results presented represent the averages of IC50 values obtained from at least quadriplicate (duplicate of duplicate) replicates.
On the technique in general: The purpose of a counterscreen is to sort out artefacts and off-target activity.

Test [2] has as its target T2, GroEL/ES (Escherichia coli, UniProt P0A6F5).
T2 construct: made in house; host or cells: GroEL in E. coli DH5a; GroES in E. coli BL21 (DE3)
In words: GroEL/ES-mediated dMDH refolding assay. Format: biochemical, E. coli. In short, it runs like this: (§1)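 Pre-formed chaperonin–denatured pig heart MDH complexes (50 nM GroEL or HSP60, 60 nM GroES or HSP10, 12 nM dMDH) refolded with 1 mM ATP and compound (100 μM–46 nM) at 37 °C, ~20-40 min for GroEL/ES or ~40-60 min for HSP60/10. After EDTA quench, MDH activity was read as NADH loss at A340. IC50 came from variable-slope regression.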

The target in test [3] is T3, HSP60/10 (Homo sapiens, UniProt P10809).
T3 construct: octa-Histidine (His8) tag, TEV-cleavable (N, cleaved yes); made in house; host or cells: HSP60 in Rosetta 2 (DE3) E. coli; HSP10 in Rosetta 2 (DE3) pLysS
As to the kind of experiment: HSP60/10-mediated dMDH refolding assay. The note with it: 37° C., 1 mM ATP, read-out: Biochemical Assay IC50 HSP60/10-dMDH Refolding. It is filed as biochemical. Put shortly: as §1

SMILES strings stand for the structures. Read-outs that look alike come from different tables or passages of the source.

T2 sequence (P0A6F5 2-548): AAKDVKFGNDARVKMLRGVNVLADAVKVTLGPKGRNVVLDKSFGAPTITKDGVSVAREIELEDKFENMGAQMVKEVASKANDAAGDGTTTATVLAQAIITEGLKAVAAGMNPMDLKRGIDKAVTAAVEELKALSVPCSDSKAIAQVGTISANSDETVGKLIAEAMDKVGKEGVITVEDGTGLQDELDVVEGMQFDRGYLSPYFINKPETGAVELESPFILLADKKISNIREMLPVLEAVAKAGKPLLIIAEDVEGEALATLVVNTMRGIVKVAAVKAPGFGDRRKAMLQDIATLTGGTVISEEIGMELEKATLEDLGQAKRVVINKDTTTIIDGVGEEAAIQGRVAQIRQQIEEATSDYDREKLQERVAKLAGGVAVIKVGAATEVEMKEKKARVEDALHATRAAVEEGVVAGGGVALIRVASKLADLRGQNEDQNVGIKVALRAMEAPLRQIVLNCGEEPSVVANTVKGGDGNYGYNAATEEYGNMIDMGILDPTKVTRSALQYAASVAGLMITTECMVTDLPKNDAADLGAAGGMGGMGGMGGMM
T3 sequence (P10809 27-573): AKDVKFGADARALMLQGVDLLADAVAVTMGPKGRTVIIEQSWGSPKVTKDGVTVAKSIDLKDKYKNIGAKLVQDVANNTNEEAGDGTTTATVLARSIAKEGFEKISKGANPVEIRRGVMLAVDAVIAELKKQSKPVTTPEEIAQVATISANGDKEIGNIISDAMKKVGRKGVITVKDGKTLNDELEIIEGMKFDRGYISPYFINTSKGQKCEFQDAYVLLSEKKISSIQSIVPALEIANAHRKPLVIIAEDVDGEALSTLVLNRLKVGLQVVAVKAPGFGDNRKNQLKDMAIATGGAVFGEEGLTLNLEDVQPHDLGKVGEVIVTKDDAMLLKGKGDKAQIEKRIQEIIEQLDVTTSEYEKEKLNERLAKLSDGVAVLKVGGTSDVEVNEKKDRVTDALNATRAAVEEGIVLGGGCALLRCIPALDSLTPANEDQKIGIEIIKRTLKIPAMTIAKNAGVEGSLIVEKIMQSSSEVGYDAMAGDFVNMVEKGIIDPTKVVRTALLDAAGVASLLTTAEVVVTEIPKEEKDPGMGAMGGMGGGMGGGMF

`COc1c(Br)cccc1C(=O)Nc1cc(Cl)c(C(C#N)c2ccc(Cl)cc2)cc1C` (stereo not drawn) [Compound 47, 3-bromo-N-(5-chloro-4-((4-chlorophenyl)(cyano)methyl)-2-methylphenyl)-2-methoxybenzamide]: the IC50 in test [1] (Table 2) was greater than 63 µM; in test [2], 49 µM; in test [3] (Table 2), greater than 100 µM.

Turning to `Cc1cc(C(C#N)c2ccc(Cl)cc2)c(Cl)cc1NC(=O)c1cccc(Br)c1` (stereo not drawn) [Compound 74, 3-bromo-N-(5-chloro-4-((4-chlorophenyl)(cyano)methyl)-2-methylphenyl)benzamide], the IC50 in test [1] (Table 2) was greater than 63 µM; in test [2] it was 50 µM; in test [3] (Table 2), greater than 100 µM.

For `COc1ccc(Cl)cc1C(=O)Nc1ccc(Cc2ccccc2)cc1` [Compound 98, N-(4-benzylphenyl)-5-chloro-2-methoxybenzamide], the results for the IC50 in test [1] (Table 3), in test [2] and in test [3] (Table 3) were greater than 63 µM, greater than 100 µM and greater than 100 µM, respectively.

As to `COc1ccc(Cl)cc1C(=O)Nc1ccc(O)cc1` [Compound 114, 5-chloro-N-(4-hydroxyphenyl)-2-methoxybenzamide], the IC50 is greater than 63 µM in test [1] (Table 3), greater than 100 µM in test [2] and greater than 100 µM in test [3] (Table 3).

In the case of `O=C(Nc1ncc([N+](=O)[O-])s1)c1ccccc1O` [Tizoxanide, reference compound], the IC50 in test [1] (Table 1) is greater than 63 µM; in test [2] it was greater than 100 µM; in test [3] (Table 1), greater than 100 µM.

On to `O=C(Nc1ccc(Oc2ccc(Cl)cc2)cc1)c1cc(Cl)ccc1O` [Compound 89, 5-chloro-N-(4-(4-chlorophenoxy)phenyl)-2-hydroxybenzamide], for which the IC50 in test [1] (Table 3) is greater than 63 µM; in test [2], 46 µM; in test [3] (Table 3), 45 µM.

Consider `CC(=O)Oc1ccccc1C(=O)Nc1ncc([N+](=O)[O-])s1` [Nitazoxanide, reference compound], for which the IC50 is greater than 63 µM in test [1] (Table 1), greater than 100 µM in test [2] and greater than 100 µM in test [3] (Table 1).

Consider `COc1ccc(Cl)cc1C(=O)Nc1ccc(NC(C)=O)cc1` [Compound 104, N-(4-acetamidophenyl)-5-chloro-2-methoxybenzamide], for which the IC50 was greater than 63 µM in test [1] (Table 3), greater than 100 µM in test [2] and greater than 100 µM in test [3] (Table 3).

Regarding `O=C(Nc1ccc(Sc2nc3ccccc3s2)cc1)c1cc(Cl)ccc1O` [Compound 97, N-(4-(benzo[d]thiazol-2-ylthio)phenyl)-5-chloro-2-hydroxybenzamide], the IC50 was greater than 63 µM in test [1] (Table 3), 24 µM in test [2] and 59 µM in test [3] (Table 3).

Regarding `Cc1cc(C(C#N)c2ccc(Cl)cc2)c(Cl)cc1NC(=O)c1ccc([N+](=O)[O-])cc1` (stereo not drawn) [Compound 69, N-(5-chloro-4-((4-chlorophenyl)(cyano)methyl)-2-methylphenyl)-4-nitrobenzamide], the IC50 in test [1] (Table 2) is greater than 63 µM; in test [2] it was 37 µM; in test [3] (Table 2), greater than 100 µM.

As for `N#CCc1ccc(NC(=O)c2cc(Cl)ccc2O)cc1` [Compound 111, 5-chloro-N-(4-(cyanomethyl)phenyl)-2-hydroxybenzamide], the IC50 in test [1] (Table 3) is greater than 63 µM; in test [2], greater than 100 µM; in test [3] (Table 3), greater than 100 µM.

In the case of `Cc1cc(C(C#N)c2ccc(Cl)cc2)c(Cl)cc1NC(=O)c1cccc(N)c1` (stereo not drawn) [Compound 71, 3-amino-N-(5-chloro-4-((4-chlorophenyl)(cyano)methyl)-2-methylphenyl)benzamide], the values for the IC50 in test [1] (Table 2), in test [2] and in test [3] (Table 2) were greater than 63 µM, 51 µM and greater than 100 µM, respectively.

As for `CC(=O)Nc1cc(Cl)c(C(C#N)c2ccc(Cl)cc2)cc1C` (stereo not drawn) [Compound 83, N-(5-chloro-4-((4-chlorophenyl)(cyano)methyl)-2-methylphenyl)acetamide], the IC50 in test [1] (Table 2) is greater than 63 µM; in test [2] it was greater than 100 µM; in test [3] (Table 2), 69 µM.

As to `COc1cc(Cl)ccc1C(=O)Nc1cc(Cl)c(C(C#N)c2ccc(Cl)cc2)cc1C` (stereo not drawn) [Compound 55, 4-chloro-N-(5-chloro-4-((4-chlorophenyl)(cyano)methyl)-2-methylphenyl)-2-methoxybenzamide], the IC50 in test [1] (Table 2) was greater than 63 µM; in test [2], 59 µM; in test [3] (Table 2), greater than 100 µM.

As to `O=C(Nc1cc(Cl)cc(Cl)c1O)c1c(O)c(Cl)cc(Cl)c1Cl` [Oxyclosanide, reference compound], the results for the IC50 in test [1] (Table 1), in test [2] and in test [3] (Table 1) were 54 µM, 45 µM and 28 µM, respectively.

Regarding `Cc1cc(C(C#N)c2ccc(Cl)cc2)c(Cl)cc1NC(=O)c1cc(Br)cc(Br)c1O` (stereo not drawn) [Compound 46, 3,5-dibromo-N-(5-chloro-4-((4-chlorophenyl)(cyano)methyl)-2-methylphenyl)-2-hydroxybenzamide], the results for the IC50 in test [1] (Table 2), in test [2] and in test [3] (Table 2) were 2.3 µM, 1.9 µM and 2.4 µM, respectively.

As to `COc1ccc(Cl)cc1C(=O)Nc1ccc(Sc2nc3ccccc3s2)c(Cl)c1` [Compound 94, N-(4-(benzo[d]thiazol-2-ylthio)-3-chlorophenyl)-5-chloro-2-methoxybenzamide], the IC50 was greater than 63 µM in test [1] (Table 3), 61 µM in test [2] and greater than 100 µM in test [3] (Table 3).

With `Cc1cc(C(C#N)c2ccc(Cl)cc2)c(Cl)cc1NC(=O)c1ccccc1[N+](=O)[O-]` (stereo not drawn) [Compound 67, N-(5-chloro-4-((4-chlorophenyl)(cyano)methyl)-2-methylphenyl)-2-nitrobenzamide], the IC50 in test [1] (Table 2) was greater than 63 µM; in test [2], 43 µM; in test [3] (Table 2) it was greater than 100 µM.

`Cc1cc(C(C#N)c2ccc(Cl)cc2)c(Cl)cc1NC(=O)c1ccccc1Cl` (stereo not drawn) [Compound 76, 2-chloro-N-(5-chloro-4-((4-chlorophenyl)(cyano)methyl)-2-methylphenyl)benzamide]: the figures for the IC50 in test [1] (Table 2), in test [2] and in test [3] (Table 2) were greater than 63 µM, 54 µM and greater than 100 µM, respectively.

Turning to `COC(=O)c1ccc(NC(=O)c2cc(Cl)ccc2OC)cc1` [Compound 106, methyl 4-(5-chloro-2-methoxybenzamido)benzoate], the IC50 in test [1] (Table 3) is greater than 63 µM; in test [2], 46 µM; in test [3] (Table 3), greater than 100 µM.

Turning to `COc1ccc(Cl)cc1C(=O)Nc1ccccc1` [Compound 116, 5-chloro-2-methoxy-N-phenylbenzamide], the IC50 in test [1] (Table 3) is greater than 63 µM; in test [2] it was greater than 100 µM; in test [3] (Table 3) it was greater than 100 µM.

Consider `O=C(Nc1ccc(Sc2nc3ccccc3s2)c(Cl)c1)c1cc(Br)cc(Br)c1O` [Compound 1, reference compound], for which the IC50 was found to be 6.3 µM in test [1] (Table 1), 2 µM in test [2] and 3.7 µM in test [3] (Table 1).

Consider `Cc1cc(C(C#N)c2ccc(Cl)cc2)c(Cl)cc1NC(=O)c1cccc(Br)c1O` (stereo not drawn) [Compound 48, 3-bromo-N-(5-chloro-4-((4-chlorophenyl)(cyano)methyl)-2-methylphenyl)-2-hydroxybenzamide], for which the IC50 came to 48 µM in test [1] (Table 2), 12 µM in test [2] and 7.7 µM in test [3] (Table 2).

For `CC(=O)Nc1ccc(NC(=O)c2cc(Cl)ccc2O)cc1` [Compound 105, N-(4-acetamidophenyl)-5-chloro-2-hydroxybenzamide], the IC50 in test [1] (Table 3) is greater than 63 µM; in test [2], greater than 100 µM; in test [3] (Table 3) it was greater than 100 µM.

These data come from patent US20230406831A1, “COMPOUNDS AND METHODS OF INHIBITING BACTERIAL CHAPERONIN SYSTEMS” (THE TRUSTEES OF INDIANA UNIVERSITY, priority 2020, published 2023).
